Patent publication US11154589B2, “Antimicrobial composition combinations comprising star shaped peptide polymers” (The University of Melbourne, priority 2016, dated 2021)
Several values for one entry are separate records, joined by “and”; a condition that tells them apart may be missing. Identical values can stand only once. Marks after values point to notes of the source that are not given here.

Legend:
[1] = system: CMDR A. baumannii (FADDI-AB156); test: Antibiogram of CMDR A. baumannii (MIC); type: cell-based, Acinetobacter baumannii; conditions: CMDR A. baumannii (FADDI-AB156)
[2] = system: Klebsiella pneumoniae (K. pneumoniae, ATCC 13883); test: MBC determination (in vitro antimicrobial experiment, CFU counting); type: cell-based; conditions: compound alone
Procedure: (§1) Freeze-dried cultures of Escherichia coli (E. coli, ATCC 25922), Klebsiella pneumoniae (K. pneumoniae, ATCC 13883), Pseudomonas aeruginosa (P. aeruginosa, ATCC 47085), Acinetobacter baumannii (A. baumannii, ATCC 19606), colistin and multidrug-resistant (CMDR) A. baumannii (FADDI-AB156), and CMDR P. aeruginosa (FADDI-PA067) were grown aerobically and maintained by passage at ambient temperature on horse blood agar (10% v/v defibrinated horse blood, 4.4% w/v Oxoid Blood Agar Base No. 2). Overnight cultures were made from transferring a colony (ca. half a loop) from the agar plates to culture tubes containing sterilized Luria-Bertani broth (LB, 1% w/v Bacto™ Tryptone, 1% w/v NaCl, 0.5% w/v Oxoid Yeast Extract) (20 mL). Bacterial cultures were incubated overnight at 37° C. with aeration and without agitation, with the exception of the two P. aeruginosa strains (ATCC 47085 and FADDI-PA067) which were cultured at 37° C. with aeration and agitation (150 rpm). On the next day, for E. coli, K. pneumonia, P. aeruginosa (ATCC 47085), and CMDR P. aeruginosa (FADDI-PA067), small aliquots (i.e., 0.5-3 mL) were taken from the culture tubes, further diluted with LB (20 mL), and incubated for 3-4 h at 37° C. with aeration before use. All bacterial cultures were cultured without agitation, with the exception of P. aeruginosa ATCC 47085 and FADDI-PA067 which were cultured with shaking at 150 rpm. For A. baumannii, an aliquot of 0.5 mL was taken from the overnight culture tube, further diluted with LB (200 mL), and incubated overnight at 37° C. with aeration before use.
(§2) The 96-well plate was then incubated at 37° C. for 1.5 or 3 h. For each well, microbial solution was diluted with saline (0.9% NaCl solution) using an appropriate dilution factor and placed on a LB agar plate (LB broth containing 15 g/L Oxoid Blood Agar Base No. 2). For E. coli, K. pneumoniae, and A. Baumannii (ATCC 19606 and FADDI-AB156), the agar plates were incubated overnight at room temperature, and then at 37° C. with aeration for 2 h. For P. Aeruginosa (ATCC 47085 and FADDI-PA067), the agar plates were incubated at 37° C. with aeration. The number of colony-forming units (CFU) was counted and expressed as CFU/mL. Positive controls consisting of cells without any treatment were used. […] A minimum of two independent experiments (biological replicates) of the assay were conducted and three technical replicates were used in each experiment. Data is expressed as mean±standard deviation (SD) and analysed using student's t-test.

[3] = system: Pseudomonas aeruginosa (P. aeruginosa, ATCC 47085); test: as above; type: cell-based; conditions: compound alone; P. aeruginosa (wild-type)
Procedure: as §1, §2

[4] = system: Acinetobacter baumannii (A. baumannii, ATCC 19606); test: as above; type: cell-based; conditions: compound alone; A. baumannii (wild-type)
Procedure: as §1, §2

[5] = system: Escherichia coli (E. coli, ATCC 25922); test: as above; type: cell-based; conditions: compound alone
Procedure: as §1, §2

[6] = system: Klebsiella pneumoniae (K. pneumoniae, ATCC 13883); test: S16-antibiotic co-administration, synergy by Bliss Independence and HSA models; type: cell-based; conditions: for MBC in combination: S16 and antibiotic co-administered, each at MBC50, 3 h; for Antimicrobial activity on co-administration with S16 compared to compounds alone (log change in CFU/mL): all compounds at MBC50, t=3 h; for Synergistic? (Yes/No) Bliss* / Synergistic? (Yes/No) HAS*: antibiotic in combination with S16, 3 h; for Synergistic? (Yes/No) Bliss*: Bliss Independence model; for Synergistic? (Yes/No) HAS*: Highest Single Agent model
Procedure: as §2
(§3) The Bliss Independence and HSA models were used to calculate drug synergism. […] Biotechnol. 31, 160-165 (2013). With the Bliss Independence model, synergism was calculated using the formula, BICAB=A+B−AB (1), where A and B are the effects of the two drugs in isolation and BICAB is the combined effect of the two drugs as predicted by the Bliss Independence model. […] In the HSA model, if CAB is greater than the greater of A and B, CAB>max(A, B), synergy is observed. The quantitative effect of the compounds when administered alone (i.e., A and B) or in combination (i.e., CAB) was defined as the fractional reduction of the population, R=1−CFUt/CFU0, where CFUt is the CFU/mL measured after treatment, and CFU0 is the CFU/mL measured before treatment.

[7] = system: Pseudomonas aeruginosa (P. aeruginosa, ATCC 47085); test: as above; type: cell-based; conditions: for Antimicrobial activity on co-administration with S16 compared to compounds alone (log change in CFU/mL): all compounds at MBC50; for MBC in combination: S16 and antibiotic co-administered, each at MBC50; for MBC in combination / Synergistic? (Yes/No) Bliss* / Synergistic? (Yes/No) HAS*: 3 h; for Synergistic? (Yes/No) Bliss* / Synergistic? (Yes/No) HAS*: antibiotic in combination with S16; for Synergistic? (Yes/No) Bliss*: Bliss Independence model; for Synergistic? (Yes/No) HAS*: Highest Single Agent model
Procedure: as §2, §3

[8] = system: Acinetobacter baumannii (A. baumannii, ATCC 19606); test: as above; type: cell-based; conditions: for Interaction with S16 as evaluated by the Bliss Independence and HSA models (in words) / Antimicrobial activity on co-administration with S16 compared to compounds alone (log change in CFU/mL): A. baumannii wild-type; for Interaction with S16 as evaluated by the Bliss Independence and HSA models (in words): 3 h time point; for Antimicrobial activity on co-administration with S16 compared to compounds alone (log change in CFU/mL): all compounds at MBC50, t=3 h; for MBC in combination / Synergistic? (Yes/No) Bliss* / Synergistic? (Yes/No) HAS*: A. baumannii, 3 h; for MBC in combination: S16 and antibiotic co-administered, each at MBC50; for Synergistic? (Yes/No) Bliss* / Synergistic? (Yes/No) HAS*: antibiotic in combination with S16; for Synergistic? (Yes/No) Bliss*: Bliss Independence model; for Synergistic? (Yes/No) HAS*: Highest Single Agent model
Procedure: as §2, §3

[9] = system: Escherichia coli (E. coli, ATCC 25922); test: as above; type: cell-based; conditions: for MBC in combination: S16 and antibiotic co-administered, each at MBC50, 3 h; for Antimicrobial activity on co-administration with S16 compared to compounds alone (log change in CFU/mL): all compounds at MBC50, t=3 h; for Synergistic? (Yes/No) Bliss* / Synergistic? (Yes/No) HAS*: antibiotic in combination with S16, 3 h; for Synergistic? (Yes/No) Bliss*: Bliss Independence model; for Synergistic? (Yes/No) HAS*: Highest Single Agent model
Procedure: as §2, §3

[10] = system: CMDR A. baumannii (FADDI-AB156); test: MBC determination (in vitro antimicrobial experiment, CFU counting); type: cell-based, Acinetobacter baumannii; conditions: compound alone
Procedure: as §1, §2

[11] = system: CMDR P. aeruginosa (FADDI-PA067); test: as above; type: cell-based, Pseudomonas aeruginosa; conditions: compound alone
Procedure: as §1, §2

[12] = system: CMDR P. aeruginosa (FADDI-PA067); test: Antibiogram of CMDR P. aeruginosa; type: cell-based, Pseudomonas aeruginosa; conditions: interpreted by CLSI resistant breakpoints
[13] = system: rat hepatoma (H4IIE) cells; test: Apoptosis/necrosis assay (mammalian cell viability); conditions: single agent at a dose equivalent to its MBC (against CMDR A. baumannii); 90 min incubation
Procedure: Rat hepatoma cells (H4IIE) were cultivated in DMEM medium (supplemented with 10% FBS, 1× GlutaMAX™, and 1× penicillin-streptomycin) in a humidified atmosphere containing 5% CO2 at 37° C. Cells were seeded in a T75 flask (ca. 3×10^6 cells/ml) and passaged twice a week prior to performing the subsequent cell viability studies.
Adherent H4IIE cells (obtained from the ATCC, and throughout the course of the study cells were checked for mycoplasma contamination using Mycoplasma stain kit, Myc1, Sigma) were grown to 80% confluence and trypsinised prior to assay. H4IIE cells were chosen for this study as they are standard cell lines used in toxicity studies. Cells were diluted 1:2 with ‘complete’ DMEM and seeded in a 24-well plate (1 mL per well). The cells were incubated at 37° C. in 5% CO2 for 24 h until ca. 95% confluence. The medium was removed. […] The cells were then harvested and all well contents were transferred to round-bottomed polypropylene tubes (5 mL). The cells were washed with cold DPBS, then stained with YO-PRO®-1 and PI (0.2 mL from a stock solution, whereby both dyes were diluted 1:1000 in cold DPBS, per well), and incubated on ice for 20 to 30 min. The cells were analyzed by flow cytometry (Cytomics FC 500 MPL System). Standard compensation was performed using single-colour stained cells. Negative controls using untreated cells were included. […]

[14] = system: CMDR A. baumannii (FADDI-AB156); test: S16-antibiotic co-administration, synergy by Bliss Independence and HSA models; type: cell-based, Acinetobacter baumannii
Procedure: as §2, §3

[15] = system: CMDR P. aeruginosa (FADDI-PA067); test: as above; type: cell-based, Pseudomonas aeruginosa
Procedure: as §2, §3

[16] = S16 and antibiotic co-administered, each at MBC50, 3 h
[17] = antibiotic in combination with S16, 3 h, Bliss Independence model
[18] = antibiotic in combination with S16, 3 h, Highest Single Agent model
[19] = co-administered S16 (at MBC50) and antibiotic, antibiotic concentration giving at least 2-log reduction in CFU/mL, 3 h

gentamicin
Susceptibility ([1]; interpreted by CLSI resistant breakpoints): Resistant | MIC ([1]; read-out: MIC): >1104.5 µM | MBC [2]: 2.2 µM | MBC [3]: 2.4 µM | MBC [4]: 12.1 µM | MBC [5]: 3.7 µM | MBC in combination [6]: 1.1 µM | Antimicrobial activity on co-administration with S16 compared to compounds alone (log change in CFU/mL) [6]: enhanced efficacy | Synergistic? (Yes/No) Bliss* [6]: Yes | Synergistic? (Yes/No) HAS* [6]: Yes | Antimicrobial activity on co-administration with S16 compared to compounds alone (log change in CFU/mL) ([7]; P. aeruginosa wild-type, t=3 h): did not result in any significant change in activity | MBC in combination ([7]; P. aeruginosa): 1.2 µM | Antimicrobial activity on co-administration with S16 compared to compounds alone (log change in CFU/mL) ([7]; P. aeruginosa, t=1.5 h): enhancement in efficacy | Synergistic? (Yes/No) Bliss* ([7]; P. aeruginosa): No | Synergistic? (Yes/No) HAS* ([7]; P. aeruginosa): No | Interaction with S16 as evaluated by the Bliss Independence and HSA models (in words) [8]: non-synergistic | Antimicrobial activity on co-administration with S16 compared to compounds alone (log change in CFU/mL) [8]: did not result in any significant change in activity | MBC in combination [8]: 6.0 µM | Synergistic? (Yes/No) Bliss* [8]: Yes | Synergistic? (Yes/No) HAS* [8]: No | MBC in combination [9]: 2.2 µM | Antimicrobial activity on co-administration with S16 compared to compounds alone (log change in CFU/mL) [9]: enhanced efficacy | Synergistic? (Yes/No) Bliss* [9]: Yes | Synergistic? (Yes/No) HAS* [9]: Yes | MBC [10]: >1104.5 µM | MBC [11]: <1.1 µM | Susceptibility [12]: Resistant

O=[N+]([O-])[O-].[Ag+] [Ag^+, silver nitrate]
MBC [2]: 10.6 µM | MBC [3]: 1.2 µM | MBC [4]: 8.2 µM | MBC [5]: 3.5 µM | H4IIE cell viability reduced by, compared to the untreated control [13]: 33% | Interaction with S16 as evaluated by the Bliss Independence and HSA models (in words) ([6]; 3 h time point): synergize | MBC in combination [6]: 5.3 µM | Antimicrobial activity on co-administration with S16 compared to compounds alone (log change in CFU/mL) [6]: significantly enhanced antimicrobial activity | Synergistic? (Yes/No) Bliss* [6]: Yes | Synergistic? (Yes/No) HAS* [6]: Yes | Interaction with S16 as evaluated by the Bliss Independence and HSA models (in words) ([7]; P. aeruginosa wild-type, 3 h time point): synergize | Antimicrobial activity on co-administration with S16 compared to compounds alone (log change in CFU/mL) ([7]; P. aeruginosa wild-type, t=3 h): significantly enhanced antimicrobial activity | MBC in combination ([7]; P. aeruginosa): 0.5 µM | Synergistic? (Yes/No) Bliss* ([7]; P. aeruginosa): Yes | Synergistic? (Yes/No) HAS* ([7]; P. aeruginosa): Yes | Interaction with S16 as evaluated by the Bliss Independence and HSA models (in words) [8]: synergize | Antimicrobial activity on co-administration with S16 compared to compounds alone (log change in CFU/mL) [8]: significantly enhanced antimicrobial activity | MBC in combination [8]: 4.1 µM | Synergistic? (Yes/No) Bliss* [8]: Yes | Synergistic? (Yes/No) HAS* [8]: Yes | Interaction with S16 as evaluated by the Bliss Independence and HSA models (in words) ([9]; 3 h time point): synergize | MBC in combination [9]: 1.8 µM | Antimicrobial activity on co-administration with S16 compared to compounds alone (log change in CFU/mL) [9]: significantly enhanced antimicrobial activity | Synergistic? (Yes/No) Bliss* [9]: Yes | Synergistic? (Yes/No) HAS* [9]: Yes | Interaction with S16 as evaluated by the Bliss Independence and HSA models (in words) ([14]; 3 h time point): synergize | Fold reduction of MBC ([14]; MBCeff in combination versus MBC alone): 3.7 fold | MBC in combination [14, 16]: 2.9 µM | Antimicrobial activity on co-administration with S16 compared to compounds alone (log change in CFU/mL) ([14]; all compounds at MBC50, t=3 h): Enhanced antimicrobial activity | Synergistic? (Yes/No) Bliss* [14, 17]: Yes | Synergistic? (Yes/No) HAS* [14, 18]: Yes | MBC in combination, MBCeff [14, 19]: 2.9 μM and 2.9^a μM | Interaction with S16 as evaluated by the Bliss Independence and HSA models (in words) ([15]; 3 h time point): synergize | Fold reduction of MBC ([15]; MBCeff with S16 versus MBC alone): 6.5 fold | MBC in combination [15, 16]: 11.8 µM | Antimicrobial activity on co-administration with S16 compared to compounds alone (log change in CFU/mL) ([15]; all compounds at MBC50, t=3 h): Enhanced antimicrobial activity | Synergistic? (Yes/No) Bliss* [15, 17]: Yes | Synergistic? (Yes/No) HAS* [15, 18]: Yes | MBC in combination, MBCeff [15, 19]: 5.9^a μM | MBC [10]: 10.6 µM | MBC [11]: 38.3 µM
